Measured values from ChEMBL document CHEMBL3045287, “Synthesis and antimicrobial activity of morpholinyl/piperazinylbenzothiazines” (2012).

Columns and labels:
Bacillus cereus = test: Antimicrobial activity against Bacillus cereus at 30 ug/ml after 24 hr by well diffusion assay; assay type: functional; settings: read-out: IZ
Escherichia coli = test: Antimicrobial activity against Escherichia coli at 30 ug/ml after 24 hr by well diffusion assay; assay type: functional; settings: read-out: IZ

| SMILES | zone of inhibition at 30 µg/mL (Bacillus cereus) [mm] | zone of inhibition at 30 µg/mL (Escherichia coli) [mm] |
| --- | --- | --- |
| CC1=C(C(=O)N2CCN(CCO)CC2)Sc2ccccc2N1 | 7 | 9 |
| CC1=C(C(=O)N2CCN(CCO)CC2)Sc2cc(Cl)ccc2N1 | 9 | 11 |
| Cc1ccc2c(c1)SC(C(=O)N1CCOCC1)=C(C(C)C)N2 | 10 | 7 |
| CC1=C(C(=O)N2CCOCC2)Sc2cc(C)ccc2N1 | 9 | 12 |
| CC1=C(C(=O)N2CCOCC2)Sc2ccccc2N1 | 12 | 9 |
| CC1=C(C(=O)N2CCOCC2)Sc2cc(Cl)ccc2N1 | 8 | 8 |
| O=C(N[C@H](CO)[C@H](O)c1ccc([N+](=O)[O-])cc1)C(Cl)Cl [CHLORAMPHENICOL] | 10 | 9 |
